The source of these data is patent US20190183812A1, “Compounds For The Treatment Of Neuromuscular Disorders” (NMD PHARMA A/S, priority 2017, published 2019).

The Kd is a measure of binding affinity in units of concentration.

In test [1] the target is T1, CIC-1 ion channels (Rattus norvegicus, UniProt P35524).
T1 construct: from tissue; host or cells: soleus muscle of adult (12-14 week old) Wistar rats
T1 sequence (P35524 1-994): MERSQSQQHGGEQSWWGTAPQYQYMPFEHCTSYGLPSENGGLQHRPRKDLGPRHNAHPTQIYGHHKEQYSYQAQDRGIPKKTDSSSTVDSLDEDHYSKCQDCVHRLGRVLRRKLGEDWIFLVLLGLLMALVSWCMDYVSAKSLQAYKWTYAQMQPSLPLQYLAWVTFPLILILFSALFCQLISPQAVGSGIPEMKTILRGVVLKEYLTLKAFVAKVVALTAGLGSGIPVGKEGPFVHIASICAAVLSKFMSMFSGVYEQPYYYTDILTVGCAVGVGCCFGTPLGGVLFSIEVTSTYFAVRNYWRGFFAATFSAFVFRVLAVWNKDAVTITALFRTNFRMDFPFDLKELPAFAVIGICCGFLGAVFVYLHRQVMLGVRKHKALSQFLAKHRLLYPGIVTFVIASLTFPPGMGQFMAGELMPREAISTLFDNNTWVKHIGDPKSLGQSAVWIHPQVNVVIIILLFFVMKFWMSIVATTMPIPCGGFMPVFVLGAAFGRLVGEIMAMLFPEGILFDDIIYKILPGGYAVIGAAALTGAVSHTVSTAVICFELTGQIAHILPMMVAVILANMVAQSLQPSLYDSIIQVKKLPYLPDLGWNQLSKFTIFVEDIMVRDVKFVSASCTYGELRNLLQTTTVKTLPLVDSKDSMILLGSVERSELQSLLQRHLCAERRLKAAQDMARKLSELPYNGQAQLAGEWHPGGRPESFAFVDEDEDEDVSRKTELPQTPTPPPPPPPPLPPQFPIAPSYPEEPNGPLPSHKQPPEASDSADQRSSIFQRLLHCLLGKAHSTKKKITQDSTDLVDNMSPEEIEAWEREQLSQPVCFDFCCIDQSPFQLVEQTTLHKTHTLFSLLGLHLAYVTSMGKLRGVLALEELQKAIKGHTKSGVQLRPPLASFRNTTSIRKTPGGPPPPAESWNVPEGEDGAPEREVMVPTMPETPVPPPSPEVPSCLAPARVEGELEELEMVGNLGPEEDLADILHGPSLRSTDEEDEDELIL
In words: Resting membrane conductance (Gm), three-electrode technique, rat muscle: Kd for CIC-1 inhibition. Type of test: cell-based. The settings on record: concentration that reduced Gm by 50%.

Test [2] deals with isolated rat soleus muscles. In words: Recovery of nerve-stimulated force in isolated rat soleus muscles exposed to sub-maximal tubocurarine. As to conditions: Rattus norvegicus, 40 min; read-out: 50 μM % change after addition. How it is done:
Experiments were performed using rat soleus muscles from either young (4-wk-old) or adult Wistar rats (12-14-week-old). Animal handling, killing and isolation of muscle is described elsewhere All experiments were performed using normal Krebs-Ringer bicarbonate solution (NKR). In solutions with elevated Mg^2+, MgCl2 was added to NKR-solution causing minor increases in osmolarity and ionic strength. In solutions with elevated K^+, 4 mM NaCl was replaced by 4 mM KCl in the NKR.
In all contraction experiments, isometric force production was determined and force produced during contractions was quantified by measuring the integral of the force response (AUC). Stimulation and force recordings have been described elsewhere. […] In these latter experiments, extracellular recordings of action potentials (M-waves) could be measured without temporal overlap with stimulation artefacts.
The aim was to find compounds that by inhibition of CIC-1 channels can recover nerve-stimulated force under conditions of fatigue including conditions where fatigue is caused by compromised neuromuscular transmission. Neuromuscular transmission dysfunction can develop because of both pre- and/or post-synaptic complications in connection with a disorder or as part of neuromuscular blockade during/after surgery. In the initial series of drug testing, experiments were performed with isolated muscles in the presence of sub-maximal ACh receptor antagonist tubocurarine. Since the inclusion of tubocurarine caused a partial loss of neuromuscular transmission this experiment mimics the conditions in myasthenia gravis and neuromuscular blockade. To mimic conditions with pre-synaptic complication (Lambert Eaton syndrome, motor neuron disorder, polyneuropathy) the intact nerve-muscle preparations were incubated at elevated extracellular Mg^2+, which is known to suppress release of ACh from nerve terminals of motor neurons.
To identify CIC-1 inhibitors that could be used for treatment of neuromuscular disorders we repeated the experiment shown in FIG. 2A but instead of adding 9-AC we added the compounds of interest in different concentrations within the range from 10 to 500 μM. […] For comparison with the muscle only exposed to tubocurarine (grey trace), the two traces have been overlaid. […] For comparison, muscles only exposed to tubocurarine have been included. The dotted line indicates the recovery of force with C8 when compared to the force production before its addition. This value was used in Table 1 for evaluation of the efficacy of the different compounds in recovering force.

For test [3], the target named is T2, human CIC-1 channels (Homo sapiens, UniProt P35523).
T2 construct: host or cells: CHO (Chinese hamster ovary) cells
T2 sequence (P35523 whole entry): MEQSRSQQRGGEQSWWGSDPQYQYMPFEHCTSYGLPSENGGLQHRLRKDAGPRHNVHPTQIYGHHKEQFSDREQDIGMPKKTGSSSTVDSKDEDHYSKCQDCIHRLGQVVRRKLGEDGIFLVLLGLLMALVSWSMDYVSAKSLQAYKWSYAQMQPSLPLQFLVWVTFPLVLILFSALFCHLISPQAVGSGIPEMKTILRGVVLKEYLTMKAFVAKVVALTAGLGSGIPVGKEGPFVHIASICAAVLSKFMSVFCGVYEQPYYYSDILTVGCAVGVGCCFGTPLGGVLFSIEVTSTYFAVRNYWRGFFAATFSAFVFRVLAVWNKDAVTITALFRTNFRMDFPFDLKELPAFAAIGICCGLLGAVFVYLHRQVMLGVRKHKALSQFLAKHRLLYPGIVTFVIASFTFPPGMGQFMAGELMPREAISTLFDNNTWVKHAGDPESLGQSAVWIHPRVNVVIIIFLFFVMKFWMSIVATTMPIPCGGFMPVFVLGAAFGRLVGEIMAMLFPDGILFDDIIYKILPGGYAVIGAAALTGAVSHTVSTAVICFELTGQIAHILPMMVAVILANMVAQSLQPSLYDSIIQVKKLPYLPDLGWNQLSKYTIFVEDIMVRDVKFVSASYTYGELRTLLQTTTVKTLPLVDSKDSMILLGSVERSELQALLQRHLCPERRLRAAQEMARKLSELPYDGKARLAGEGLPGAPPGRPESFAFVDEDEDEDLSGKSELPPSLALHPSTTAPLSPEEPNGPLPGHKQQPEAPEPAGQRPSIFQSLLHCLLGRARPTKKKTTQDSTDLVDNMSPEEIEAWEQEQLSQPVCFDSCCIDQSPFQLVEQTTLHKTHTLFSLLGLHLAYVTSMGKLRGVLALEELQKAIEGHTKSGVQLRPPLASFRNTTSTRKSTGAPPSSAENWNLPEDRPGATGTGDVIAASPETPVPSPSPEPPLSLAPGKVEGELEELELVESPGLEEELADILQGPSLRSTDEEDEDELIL
In words: Automated patch-clamp on human CIC-1 expressed in CHO cells. Type of test: cell-based. The settings on record: compound added to the intracellular solution vs vehicle control patches; positive shift reflects CIC-1 inhibition. As for the experimental part:
The investigatory goal of these experiments was to evaluate how compounds affect the open probability and current amplitude of human CIC-1 channels expressed in CHO cells. Experiments were performed using an automated patch clamp system that allowed high throughput testing of whole cell patches together with both intracellular and extracellular addition of compound.
Automated whole cell patch clamp experiments were performed with the Qpatch 16 system (Sophion Bioscience, Ballerup, Denmark) at room temperature. Data acquisition and analysis were performed in the Qassay software (ver. 5.6, Odense).
To evoke CIC-1 currents in whole cell patches, the membrane potential was initially stepped from a holding potential of −30 mV to +60 mV for 100 ms and then to various test voltages (sweeps) ranging from +120 mV to −140 mV in steps of 20 mV for 300 ms. To obtain tail currents, the membrane potential was stepped to −100 mV after each test voltage for 300 ms and then relaxed to −30 mV for 2 sec between sweeps (FIG. 3). I/V relationships for whole cell instant and steady state current amplitudes were obtained by plotting average current densities at the beginning and at the end of the 300 ms step against the membrane potential (FIG. 4).
In order to determine the relative overall open probability (P0), the instantaneous tail currents were normalized to the maximal tail current obtained following the most positive voltage step and plotted against the test voltage. Plots of normalized tail currents from each whole cell patch were then fitted to a Boltzmann function allowing determination of half activation voltages (V1/2, FIG. 5).
For automated patch clamp experiments extracellular solutions contained: 2 mM CaCl2, 1 mM MgCl2, 10 mM HEPES, 4 mM KCl, 145 mM NaCl, 10 mM Glucose, pH adjusted to 7.4 with NaOH (2 M). Osmolality adjusted to ˜320 using sucrose.
Intracellular solutions contained: 80 mM CsF, 60 mM CsCl, 5/1 mM KOH/EGTA, 10 mM HEPES, 10 mM NaCl, pH adjusted to 7.2 with NaOH (2 M). Osmolality adjusted to ˜320 mOsm using sucrose.
Cells used in patch clamp experiments were Chinese hamster ovary cells (CHO) constitutively expressing human CIC-1 channels. The amino acid sequence encoded by the cDNA used to create this cell line was identical to the translated sequence for GenBank accession number NM_000083.2. Cells were produced by Charles River (Catalogue CT6175, Cleveland Ohio, USA) in a cryopreserved format. Experiments were performed on the cells directly after thawing (3×10^6 cells used in each experiment).
To evaluate the compound effect on CIC-1, when applied directly to the intracellular side of the cell membrane, the half activation voltage, V1/2, was determined from whole cell patches with compound added to the intracellular solution and then compared to V1/2 determined from control cell patches with only vehicle added to the intracellular solution. Additionally, the effect of extracellular added compound was evaluated by determine V1/2 and steady state current amplitudes before and after exchanging the extracellular solution to contain compound.
The difference in half activation voltage of CIC-1 channels, […]V1/2, was determined as the difference between the cell patches treated intracellularly with compound and control cells patches and is reported in Table 4 below. A positive shift in […]V1/2 is reflecting CIC-1 channel inhibition by the tested compound. P-values of <0.05 is considered significant.
In general terms: In patch-clamp work, channel activity is measured electrically.

Test [4] relates to Lewis rats. In words: In situ muscle contractile characteristics: isometric hindlimb force under cisatracurium infusion. The settings on record: 21.5 mg/kg i.v.; 12 Hz; 3 experiments. Type of test: in vivo, rat. As for the experimental part:
Isometric hindlimb force was measured in 12-week old female Lewis rats in the presence and absence of compound.
Rats were placed under anesthesia with isoflurane (2-4%), intubated and subsequently connected to a micro ventilator (Microvent 1, Hallowell EMC, US). Two stimulation electrodes were inserted through the skin to stimulate the sciatic nerve. A small incision was made proximal to the ankle, to expose the Achilles tendon, which was tied by cotton string, and connected to a force transducer (Fort250, World Precision Instruments) with adjustable position (Vernier control). The Achilles tendon was then cut distal to the attached cotton string. […]
Muscle contractile properties were assessed by applying an electrical current (under supramaximal voltage conditions) to the nerve and recording the force generated by the muscle. The muscle was stretched until maximal force was obtained, when assessed by 2 Hz stimulation. Isometric force was measured every 30 seconds at 12 Hz (Twitch), 10 pulses, and at every 5 minutes at 80 Hz (Tetanic) for 1 second (80 pulses). […] The effect of test article was assessed on its ability to increase force generated from the stimulation pattern applied. The effect was assessed in the ability to increase force per se (tetanic, 80 Hz, stimulation), and the ratio between individual twitch peaks (12 Hz stimulation). […]

In test [1], `CC(C)[C@H](Oc1ccc(Br)cc1)C(=O)O` [Compound C22, (2S)-2-(4-bromophenoxy)-3methylbutanoic acid] gave a dissociation constant (Kd) of 4.1 µM. For the same compound, in test [2], the activation at 50 µM came to 16%.
As for `C[C@H](Oc1ccc(Br)cc1C1CC1)C(=O)O` [Compound A-2, (2S)-2-(4-bromo-2-cyclopropylphenoxy)propanoic acid], the ΔV½ in test [3] is on record as 9.2 mV. Moreover, the “change in twitch peaks” value in test [4] is reported as “no significant change”.
